{
  "source": "patent US7855183B2",
  "about": "“Methods of treatment of a bcl-2 disorder using bcl-2 antisense oligomers” (Genta Incorporated, priority 2000, dated 2010)",
  "key": {"[1]": {"test_system": "LCLs (EBV-associated lymphoproliferative disease)", "experiment": "Survival in the human-SCID model of PTLD", "assay_type": "in vivo, mice", "settings": "for median survival: VP16 15 mg/kg ip q3dx4, G3139 10 mg/kg/d over 12 d ip, rituximab 20 mg/kg ip wklyx4, start 15 days after 20 million LCLs ip, untreated 50 days; for animals remaining tumor-free: monotherapy groups, stated jointly", "excerpt": "(§1) The use of the targeted therapies, G3139 ([…], Genta, Inc.) and rituximab, to enhance chemosensitivity in EBV-associated lymphoproliferative disease (LPD) have been explored. EBV+LPDs such as post-transplant lymphoproliferative disorder (PTLD) and AIDS-related lymphoma (ARL) typically express bcl-2 and CD20. […] To determine whether these targeted therapies enhance chemosensitivity in EBV+LPD, the effects of cytotoxic drugs in combination with G3139 or rituximab on proliferation and apoptosis in LCLs were examined. […] To determine whether G3139 or rituximab enhanced the anti-tumor activity of chemotherapy in vivo, the effects of VP16 (15 mg/kg ip q3d×4); G3139 (10 mg/kg/d over 12 d ip q3d) or rituximab (20 mg/kg ip wkly×4); and VP16+G3139 or VP16+rituximab (same doses) on survival in the human-SCID model of PTLD were compared. Treatment was started 15 days after ip injection of 20 million LCLs."}, "[2]": {"test_system": "LCLs (lymphoblastoid cells)", "experiment": "Proliferation and apoptosis in LCLs with cytotoxic drugs plus G3139 or rituximab", "assay_type": "cell-based", "excerpt": "as §1"}},
  "data": [
    {"molecule": "COc1cc([C@@H]2c3cc4c(cc3[C@@H](O[C@@H]3O[C@@H]5CO[C@@H](C)O[C@H]5[C@H](O)[C@H]3O)[C@H]3COC(=O)[C@H]23)OCO4)cc(OC)c1O", "note": "[VP16, etoposide]", "values": [
      {"measurement": "median survival", "setting": "[1]", "value": 86, "unit": "days"},
      {"measurement": "animals remaining tumor-free", "setting": "[1]", "value": 7, "unit": "%"}
    ]},
    {"molecule": "rituximab: targeted therapy; EBV+LPDs typically express bcl-2 and CD20", "values": [
      {"measurement": "effect in combination with chemotherapy", "setting": "[2]", "value": "augmented the effects of chemotherapy"},
      {"measurement": "effect on apoptosis", "setting": "[2]; alone", "value": "no effect"},
      {"measurement": "effect on proliferation", "setting": "[2]; alone", "value": "minimal"},
      {"measurement": "median survival", "setting": "[1]", "value": 88, "unit": "days"},
      {"measurement": "animals remaining tumor-free", "setting": "[1]", "value": 7, "unit": "%"}
    ]}
  ]
}
